We go through four compounds from US20130072459A1, “PHARMACEUTICAL COMPOSITION FOR THE PREVENTION OR THE TREATMENT OF NON-ALCOHOLIC FATTY LIVER DISEASE AND THE METHOD FOR PREVENTION OR TREATMENT OF NON-ALCOHOLIC FATTY LIVER DISEASE USING THE SAME” (priority 2010, published 2013).

The test system of assay [1] is activated hepatic stellate cells. In words: Expression of activity indicator proteins (TGFβ1, α-SMA) in activated hepatic stellate cells, Western blot. The assay is classed as cell-based, rat (Wistar). Particulars: for 1 ng/mL TGFβ1-induced protein expression inhibition rate, TGFβ1 / 1 ng/mL TGFβ1-induced protein expression inhibition rate, α-SMA: 100 μM compound, 7 days, N = 3, corrected by β-actin; for protein expression levels of TGFβ1 and α-SMA, result in words: hTGF-β1-activated rat hepatic stellate cells. The protocol: An inhibitory action of the compounds of the present invention on the activation of hepatic stellate cells was tested according to the following cell culture method. Male rats (Wistar rats), weighing 500 to 700 g, were anesthetized, followed by an abdominal incision, and cannulae were connected to hepatic portal veins, followed by sequential perfusion with a Hank's Balanced Salt Solution (HBSS) containing heparin and an HBSS containing type 1 collagenase. After the perfusion was complete, the liver was excised, ground with surgical scissors, and added to an HBSS containing type 1 collagenase, followed by shaking culture at 37° C. for 15 minutes. The completely ground liquid-state liver tissue was passed through gauze and centrifuged at 500 g for 10 minutes. The resulting mingled cell precipitate was washed with a phosphate buffer, followed by centrifugation at 100 g for 5 minutes, and the supernatant was collected. The supernatant was further centrifuged at 500 g for 10 minutes to obtain a precipitate to which a 9:1 (v/v) mixture of a Ficoll liquid (GE Healthcare) and a Percoll liquid (GE Healthcare) was added, followed by mixing. A phosphate buffer was gently placed on the mixed layer, followed by centrifugation at 1,400 g for 15 minutes. Then, the cell layer formed between the upper layer and the lower layer was recovered and washed once with a Dulbecco's Modified Eagle Medium (DMEM) containing 10(v/v) % fetal bovine serum. The resulting cells were added at a cell density of 3.1×10^5 cells/cm^2, the medium was exchanged with a fresh medium after 24 hours, and cultured for 7 days with exchange of the medium at intervals of 2 to 3 days. Then, the drugs were treated at specified concentrations in a medium containing 1 ng/ml of a human transforming growth factor (TGF) β1 and a medium containing no TGF β1. TGF β1 was dissolved in dimethylsulfoxide (DMSO) to a concentration 1.000-fold higher than the desired treatment concentration of the drug, 1.000-fold diluted in a medium to be a 1-fold (1×) volume, and then treated on cells. After 7 days of the drug treatment, the medium was harvested and washed with a phosphate buffer. A buffer containing a surfactant was added thereto and the cells were lysed. Then, proteins were quantified, electrophoresed on a 4-12% Bis-Tris gel (Invitrogen), and transferred to a nitrocellulose membrane. The transferred proteins were reacted with primary antibodies specific for α-smooth muscle actin (α-SMA) or TGFβ1, and then reacted with horse radish peroxidase-conjugated specific secondary antibodies. The expression level of the target protein was confirmed using a chemiluminescent liquid and corrected in terms of actin (β-actin) expression level (FIG. 9). The decrement of observed protein expression by 100 μM of individual compounds of the present invention was expressed as a percentage drug-induced decrement, based an increment of protein expression in the TGFβ1-treated positive control group relative to the negative control group to which only DMSO was added (Table 3).
A general note: In western blotting, separated proteins are transferred to a membrane and probed.

The test system of the next assay is HepG2 cells. In words: Free fatty acid-induced intracellular fat accumulation, Nile Red staining. In kind it is cell-based, human. The settings on record: 0.5 mM free fatty acid, 24 hours. As to the method: By a combined treatment of free fatty acid and a drug, inhibitory effects of individual drugs on intracellular fat accumulation were quantified using a triglyceride staining method. The human hepatoma cell line, HepG2 cells were cultured in a minimum essential medium (MEM) containing 10(v/v) % fetal bovine serum for 48 hours. […] For the negative control group, a MEM containing 1(v/v) % bovine serum albumin was treated with 0.1(v/v) % dimethyl sulfoxide with no addition of free fatty acid. After the culture was complete, the medium was removed and the cells were washed with a phosphate buffer. […] After the staining was complete, the supernatant was discarded and replaced with a phosphate buffer, followed by measurement of fluorescence intensities under conditions of a 488 nm excitation wavelength and a 550 nm emission wavelength. Then, in order to correct a deviation according to the cell count, a phosphate buffer containing 10 μM resazurin (Sigma) dissolved therein was added to the same well. Thereafter, before and after the reaction at 37° C. for 1 hour under light-shielded conditions, fluorescence intensities were measured using a fluorometer under conditions of a 535 nm excitation wavelength and a 580 nm emission wavelength, whereby an increase in fluorescence intensity due to resorufin reduced and formed by the intracellular mitochondrial activity was measured. Using the value of a fluorescence intensity of Nile Red corrected in terms of an increase in fluorescence intensity due to the reduction of resazurin, the experimental results were expressed as a percentage for the fat accumulation increased by a treatment with free fatty acid, as compared to the negative control group.

Assay [2] concerns high fat diet-induced simple steatosis. Description: Non-alcoholic fatty liver-preventing effects on high fat diet-induced simple steatosis in mice (oral, 28 days). The assay is classed as in vivo, C57BL/6 mice. Particulars: for Triglyceride increase inhibition (%) relative to high fat diet-fed group / Triglyceride increment (%) relative to standard diet-fed group: 28 days, high fat diet. As to the method:
7-week old male C57BL/6 mice were stabilized and then divided into 9 groups (n=9) according to the body weight and blood glucose level. A standard diet-fed group and a high fat diet-fed group were orally administered a vehicle solution (0.5% MC (methylene cellulose)) of each diet once a day at a dose of 10 ml/kg, and the remaining groups were orally given once a day for 28 days a high fat diet in conjunction with tartrate of Compound 1 at doses of 30, 100 and 300 mg/kg, sitagliptin phosphate at doses of 100 and 300 mg/kg, and vildagliptin at doses of 100 mg/kg and 300 mg/kg, respectively, according to the designated groups. 24 hours after the final oral administration, animals were dissected and the excised liver was homogenized in a 5(v/v) % Triton-X solution to which a triglyceride working reagent was then added, followed by measurement of an absorbance at 540 nm to determine the content of triglyceride (Table 2). In addition, a portion of the excised liver was fixed in a 10(v/v) % formalin solution and then a tissue sample was prepared, followed by hematoxylin & eosin(HE) staining and photographing (FIG. 8).

The subject of the next assay is TGF-β1. Description: TGF-β1 mRNA expression in liver, CCl4-induced acute hepatic damage mouse model. In kind it is in vivo, C57BL/6 mice. Particulars: for TGF-β1 expression inhibition rate (% CCl4 control group) / TGF-β1 expression (normalized by actin): 3 days; for TGF-β1 expression (normalized by actin): CCl4 0.1 ml/kg i.p. The protocol:
In order to investigate inhibitory effects of compounds of the present invention on expression of TGF-β1 which is known to play a crucial role in a fibrosis process of hepatocytes in a CCl4-induced acute hepatic damage mouse model, the following experiment was carried out. 7-week old male C57BL/6 mice were stabilized and divided into 9 groups (n=7) according to the body weight, followed by intraperitoneal administration of CCl4 (0.1 ml/kg). The normal control group was administered an olive oil. The control group was orally administered a vehicle solution (0.5% MC) once a day at a dose of 10 ml/kg, at intervals of 24 hours for 3 days. The remaining groups were orally administered once a day tartrate of Compound 1 at doses of 30, 100 and 300 mg/kg, sitagliptin phosphate (prepared according to the method described in WO2004/085378 or WO2005/003135) at doses of 100 and 300 mg/kg, and vildagliptin (Trademax, China) at doses of 100 and 300 mg/kg, respectively, according to the designated groups. 1 hour after the final oral administration, animals were dissected and the excised liver was subjected to evaluation of TGF-β1 mRNA expression. The liver tissue stored in liquid nitrogen was homogenized in a TRIZOL solution and then the total RNAs were extracted. The isolated RNAs were diluted to a concentration of 1 μg/μL in 0.1(v/v) % DEPC (diethyl pyrocarbonate), and then the RNA mixture [2 μg/μL each RNA+2 μL of 0.5 μg/μL oligo d(T)15+up to 15 μL of 0.1% DEPC water] was incubated using a PCR apparatus at 72° C. for 5 minutes, followed by quenching on ice. The mixture [1 μL of PCR nucleotide mix+5 μL of 5×MMLV RT bf.(Promega, M531A)+1 μL of […] M-MLV reverse] was prepared, and then subjected to elongation at 42° C. for 60 minutes, denaturation at 95° C. for 5 minutes and quenching at 8° C. to synthesize cDNAs which were stored at −20° C. until subsequent use. In order to carry out RT-PCR, the mixture [1 μL of 20 pmol each Primer+9.5 μL of Nuclease-free water] was prepared and then 2 μL of each cDNA was placed in sterile PCR tubes to which 12.5 μL of remix Taq™ (RR003A, TaKaRa) was then added, followed by mixing. PCR was carried out under the following conditions (Table 4), using Thermal Cycler (PTC-200, MJ Research). PCT products were electrophoresed and analyzed using an Image Analyzer (Vilber Lourmat). Using β-actin expression, the expression of a target gene TGF-β1 was subjected to normalization (FIG. 11).

For `CC#CCn1c(N2CCC[C@@H](N)C2)nc2c1c(=O)n(Cc1nc(C)c3ccccc3n1)c(=O)n2C` [linagliptin], in assay [1], the “1 ng/mL TGFβ1-induced protein expression inhibition rate, TGFβ1” value is recorded as 64 ± 17.2%; the “1 ng/mL TGFβ1-induced protein expression inhibition rate, α-SMA” value came out at 159 ± 17.5%; the “protein expression levels of TGFβ1 and α-SMA, result in words” value was “lowered”.
As to `CN(C)C(=N)N=C(N)N` [metformin], the inhibition at 1000 µM in the assay on HepG2 cells (Homo sapiens, HepG2, 1 mM, read-out: inhibitory effects on free fatty acid-induced fat accumulation) came to 23.6 ± 5%.
`N#C[C@@H]1CCCN1C(=O)CNC12CC3CC(CC(O)(C3)C1)C2` [vildagliptin]: in assay [1], the “1 ng/mL TGFβ1-induced protein expression inhibition rate, TGFβ1” value came out at 14 ± 32.8%; the “1 ng/mL TGFβ1-induced protein expression inhibition rate, α-SMA” value is given as −56 ± 8.4%; the “protein expression levels of TGFβ1 and α-SMA, result in words” value is listed as “lowered”. In assay [2] (100 mg/kg oral once a day), the “Triglyceride increase inhibition (%) relative to high fat diet-fed group” value is 24% and the “Triglyceride increment (%) relative to standard diet-fed group” value turned out to be 38%. In addition, in assay [2] (300 mg/kg oral once a day), the “Triglyceride increase inhibition (%) relative to high fat diet-fed group” value amounted to 79% and the “Triglyceride increment (%) relative to standard diet-fed group” value is recorded as 11%. Further, the “lipid droplets in liver tissue sample (histological evaluation), result in words” value in assay [2] (HE staining, FIG. 8) is listed as “reduction of lipid droplets”. Moreover, in assay [2] (maximum over the doses tested), the “maximum decrement of the hepatic triglyceride content relative to the high fat diet-fed group” value is 79%. Besides, in the assay on TGF-β1 (100 mg/kg oral once a day), the “TGF-β1 expression inhibition rate (% CCl4 control group)” value worked out at 92% and the “TGF-β1 expression (normalized by actin)” value was found to be 1.02 ± 0.09. For the same compound, in the assay with TGF-β1 (300 mg/kg oral once a day), the “TGF-β1 expression inhibition rate (% CCl4 control group)” value was determined as 115% and the “TGF-β1 expression (normalized by actin)” value worked out at 0.96 ± 0.12. Also, in the assay on TGF-β1 (maximum over the doses tested), the “maximum decrement in TGF-β1 mRNA expression of the liver relative to the CCl4 control group” value stood at 115%. Also, the “expression of TGF-β1 mRNA of the liver, result in words” value in the assay with TGF-β1 (vs CCl4 group) was “normalization”.
glucagon-like peptide-1 [GLP-1]: in the assay on HepG2 cells (100 nM), the “inhibitory effects on free fatty acid-induced fat accumulation” value came out at 28.0±4.9%.
